Source: patent US11066396B2 (priority 2016, dated 2021)

How the values were obtained:
HDAC1 = HDAC1 (Homo sapiens (Human), UniProt Q13547); details: read-out: HDAC1 IC50
HDAC8 = HDAC8 (Homo sapiens (Human), UniProt Q9BY41); details: read-out: HDAC8 IC50
HDAC8, sequence (Q9BY41 whole entry): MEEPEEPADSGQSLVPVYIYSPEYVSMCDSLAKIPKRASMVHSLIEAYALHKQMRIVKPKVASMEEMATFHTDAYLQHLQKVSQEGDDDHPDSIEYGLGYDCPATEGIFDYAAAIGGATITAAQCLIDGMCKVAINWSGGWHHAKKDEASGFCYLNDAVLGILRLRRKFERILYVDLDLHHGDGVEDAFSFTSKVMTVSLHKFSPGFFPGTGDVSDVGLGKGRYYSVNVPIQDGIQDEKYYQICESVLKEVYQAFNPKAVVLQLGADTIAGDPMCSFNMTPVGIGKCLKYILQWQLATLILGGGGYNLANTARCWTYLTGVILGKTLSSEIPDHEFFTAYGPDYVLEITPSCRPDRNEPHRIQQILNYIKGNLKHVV

HDAC1, sequence (Q13547 whole entry): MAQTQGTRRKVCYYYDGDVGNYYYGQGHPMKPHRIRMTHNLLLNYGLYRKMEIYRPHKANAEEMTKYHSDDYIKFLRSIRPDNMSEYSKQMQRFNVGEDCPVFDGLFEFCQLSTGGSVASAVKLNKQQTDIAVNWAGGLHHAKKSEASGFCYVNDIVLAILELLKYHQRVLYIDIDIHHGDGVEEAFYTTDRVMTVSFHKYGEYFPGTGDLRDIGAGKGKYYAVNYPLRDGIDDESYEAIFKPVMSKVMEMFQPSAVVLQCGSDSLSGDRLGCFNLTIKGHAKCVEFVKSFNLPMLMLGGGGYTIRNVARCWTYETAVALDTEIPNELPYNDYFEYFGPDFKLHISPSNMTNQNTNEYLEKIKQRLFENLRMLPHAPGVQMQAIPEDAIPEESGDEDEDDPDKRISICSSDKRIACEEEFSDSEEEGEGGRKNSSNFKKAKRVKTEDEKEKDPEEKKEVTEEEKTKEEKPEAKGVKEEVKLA

SMILES	IC50 (HDAC1) [nM]	IC50 (HDAC8) [nM]
O=C1CCC(c2ccc(-c3noc(C(F)(F)F)n3)cc2)N1c1ccccc1F (racemic) [Example 320, 1-(2-fluorophenyl)-5-{4-[5-(trifluoromethyl)-1,2,4-oxadiazol-3-yl]phenyl}pyrrolidin-2-one]	880	12000
CC1(Cc2ccc(-c3noc(C(F)(F)F)n3)cc2)C(=O)Nc2ccc(F)cc21 (racemic) [Example 346, 5-fluoro-3-methyl-3-{4-[5-(trifluoromethyl)-1,2,4-oxadiazol-3-yl]benzyl}-1,3-dihydro-2H-indol-2-one]	1200	15000
Cc1nc2c(c(=O)[nH]1)CC(NCc1ccc(-c3noc(C(F)(F)F)n3)cc1)CC2 (racemic) [Example 350, 2-methyl-6-[({4-[5-(trifluoromethyl)-1,2,4-oxadiazol-3-yl]phenyl}methyl)amino]-5,6,7,8-tetrahydroquinazolin-4(3H)-one]	1200	250
FC(F)(F)c1nc(-c2ccc(CNC3CCc4ncccc4C3)cc2)no1 (racemic) [Example 351, N-({4-[5-(trifluoromethyl)-1,2,4-oxadiazol-3-yl]phenyl}methyl)-5,6,7,8-tetrahydroquinolin-6-amine]	520	680
FC(F)(F)c1nc(-c2ccc(CNC3CCc4[nH]nc(C(F)(F)F)c4C3)cc2)no1 (racemic) [Example 353, 3-(trifluoromethyl)-N-({4-[5-(trifluoromethyl)-1,2,4-oxadiazol-3-yl]phenyl}methyl)-4,5,6,7-tetrahydro-1H-indazol-5-amine]	410	900
FC(F)(F)c1nc(-c2ccc(CNC3CCN(c4ncccn4)C3)cc2)no1 (racemic) [Example 354, 1-(pyrimidin-2-yl)-N-({4-[5-(trifluoromethyl)-1,2,4-oxadiazol-3-yl]phenyl}methyl)pyrrolidin-3-amine]	1600	680
FC(F)(F)c1nc(-c2ccc(CNC3CCc4ncccc4C3)nc2)no1 (racemic) [Example 371, N-({5-[5-(trifluoromethyl)-1,2,4-oxadiazol-3-yl]pyridin-2-yl}methyl)-5,6,7,8-tetrahydroquinolin-6-amine]	450	1600
Cc1n[nH]c2c1CC(NCc1ccc(-c3noc(C(F)(F)F)n3)cn1)CC2 (racemic) [Example 372, 3-methyl-N-({5-[5-(trifluoromethyl)-1,2,4-oxadiazol-3-yl]pyridin-2-yl}methyl)-4,5,6,7-tetrahydro-1H-indazol-5-amine]	400	2900
O=C1NCCc2ccccc2C1NCc1ccc(-c2noc(C(F)(F)F)n2)cn1 (racemic) [Example 373, 1-[({5-[5-(trifluoromethyl)-1,2,4-oxadiazol-3-yl]pyridin-2-yl}methyl)amino]-1,3,4,5-tetrahydro-2H-3-benzazepin-2-one]	1300	2800
O=C1CCC(NCc2ccc(-c3noc(C(F)(F)F)n3)cn2)c2ccccc2N1 (racemic) [Example 374, 5-[({5-[5-(trifluoromethyl)-1,2,4-oxadiazol-3-yl]pyridin-2-yl}methyl)amino]-1,3,4,5-tetrahydro-2H-1-benzazepin-2-one]	3200	6900
O=C1Nc2ccccc2CC1NCc1ccc(-c2noc(C(F)(F)F)n2)cn1 (racemic) [Example 375, 3-[({5-[5-(trifluoromethyl)-1,2,4-oxadiazol-3-yl]pyridin-2-yl}methyl)amino]-3,4-dihydroquinolin-2(1H)-one]	1000	2600
O=C1NCCCCC1NCc1ccc(-c2noc(C(F)(F)F)n2)cn1 (racemic) [Example 377, 3-[({5-[5-(trifluoromethyl)-1,2,4-oxadiazol-3-yl]pyridin-2-yl}methyl)amino]azepan-2-one]	7300	3300
O=C1CCC(NCc2ccc(-c3noc(C(F)(F)F)n3)cn2)c2ccccc2N1 (racemic) [Example 381, 5-[({5-[5-(trifluoromethyl)-1,2,4-oxadiazol-3-yl]pyridin-2-yl}methyl)amino]-1,3,4,5-tetrahydro-2H-1-benzazepin-2-one]	520	3900
CC(C(=O)N(Cc1ccc(-c2noc(C(F)(F)F)n2)cn1)c1cccc(F)c1)n1cccn1 (racemic) [Example 389, N-(3-fluorophenyl)-2-(1H-pyrazol-1-yl)-N-({5-[5-(trifluoromethyl)-1,2,4-oxadiazol-3-yl]pyridin-2-yl}methyl)propanamide]	300	1600
Cc1nccn1C(C)C(=O)N(Cc1ccc(-c2noc(C(F)(F)F)n2)cn1)c1cccc(F)c1 (racemic) [Example 390, N-(3-fluorophenyl)-2-(2-methyl-1H-imidazol-1-yl)-N-({5-[5-(trifluoromethyl)-1,2,4-oxadiazol-3-yl]pyridin-2-yl}methyl)propanamide]	430	1700
O=C(CC1CCS(=O)(=O)C1)N(Cc1ccc(-c2noc(C(F)(F)F)n2)cn1)c1cccc(F)c1 (racemic) [Example 398, 2-(1,1-dioxidotetrahydrothiophen-3-yl)-N-(3-fluorophenyl)-N-({5-[5-(trifluoromethyl)-1,2,4-oxadiazol-3-yl]pyridin-2-yl}methyl)acetamide]	410	2300

SMILES	IC50 (HDAC1) [nM]	IC50 (HDAC8) [nM]
CN1CC(C(=O)N(Cc2ccc(-c3noc(C(F)(F)F)n3)cn2)c2cccc(F)c2)CCC1=O (racemic) [Example 402, N-(3-fluorophenyl)-1-methyl-6-oxo-N-({5-[5-(trifluoromethyl)-1,2,4-oxadiazol-3-yl]pyridin-2-yl}methyl)piperidine-3-carboxamide]	340	2600
CN1CCC(C(=O)N(Cc2ccc(-c3noc(C(F)(F)F)n3)cn2)c2cccc(F)c2)C1 (racemic) [Example 403, N-(3-fluorophenyl)-1-methyl-N-({5-[5-(trifluoromethyl)-1,2,4-oxadiazol-3-yl]pyridin-2-yl}methyl)pyrrolidine-3-carboxamide]	250	2000
O=C(C1CCCS(=O)(=O)C1)N(Cc1ccc(-c2noc(C(F)(F)F)n2)cn1)c1cccc(F)c1 (racemic) [Example 405, N-(3-fluorophenyl)-N-({5-[5-(trifluoromethyl)-1,2,4-oxadiazol-3-yl]pyridin-2-yl}methyl)tetrahydro-2H-thiopyran-3-carboxamide 1,1-dioxide]	220	1600
O=C1N(CC2CCOCC2)CC(c2ccccc2)N1c1ccc(-c2noc(C(F)(F)F)n2)cc1 (racemic) [Example 422, 4-phenyl-1-(tetrahydro-2H-pyran-4-ylmethyl)-3-{4-[5-(trifluoromethyl)-1,2,4-oxadiazol-3-yl]phenyl}imidazolidin-2-one]	3400	4000
FC(COc1cc(-c2noc(C(F)(F)F)n2)ccn1)CN1CCOCC1 (racemic) [Example 427, 4-[2-fluoro-3-({4-[5-(trifluoromethyl)-1,2,4-oxadiazol-3-yl]pyridin-2-yl}oxy)propyl]morpholine]	5100	1000
CC(C)N1CCC(NCc2ccc(-c3noc(C(F)(F)F)n3)cn2)C1=O (racemic) [Example 435, 1-(1-methylethyl)-3-[({5-[5-(trifluoromethyl)-1,2,4-oxadiazol-3-yl]pyridin-2-yl}methyl)amino]pyrrolidin-2-one]	4400	4600
O=C1CC(NCc2ccc(-c3noc(C(F)(F)F)n3)cn2)CCN1 (racemic) [Example 437, 4-[({5-[5-(trifluoromethyl)-1,2,4-oxadiazol-3-yl]pyridin-2-yl}methyl)amino]piperidin-2-one]	5400	5100
CN1CCOC(CNCc2ccc(-c3noc(C(F)(F)F)n3)cn2)C1 (racemic) [Example 452, 1-(4-methylmorpholin-2-yl)-N-({5-[5-(trifluoromethyl)-1,2,4-oxadiazol-3-yl]pyridin-2-yl}methyl)methanamine]	2800	2400
O=C1CCC(c2ccccc2)N1c1ncc(-c2noc(C(F)(F)F)n2)cc1F (centres unmarked) [Example 5, 1-(3-Fluoro-5-(5-(trifluoromethyl)-1,2,4-oxadiazol-3-yl)pyridin-2-yl)-5-phenylpyrrolidin-2-one]	2300	13000
O=C1CC[C@@H](c2nc3ccccc3[nH]2)N1c1ccc(-c2noc(C(F)(F)F)n2)cc1 [Example 21, (S)-5-(1H-Benzo[d]imidazol-2-yl)-1-(4-(5-(trifluoromethyl)-1,2,4-oxadiazol-3-yl)phenyl)pyrrolidin-2-one]	110	660
O=C1CC[C@@H](c2nc3ccccc3o2)N1c1ccc(-c2noc(C(F)(F)F)n2)cc1F [Example 22, (S)-5-(Benzo[d]oxazol-2-yl)-1-(2-fluoro-4-(5-(trifluoromethyl)-1,2,4-oxadiazol-3-yl)phenyl)pyrrolidin-2-one]	32	350
O=C1CCC[C@@H](c2nc3ccccc3s2)N1c1ccc(-c2noc(C(F)(F)F)n2)cc1 [Example 25, (S)-6-(Benzo[d]thiazol-2-yl)-1-(4-(5-(trifluoromethyl)-1,2,4-oxadiazol-3-1)phenyl)piperidin-2-one]	220	740
FC(F)(F)c1nc(-c2ccc(N[C@@H]3CCCC[C@H]3c3ccccc3)nc2)no1 [Example 26, N-((1R,2S)-2-Phenylcyclohexyl)-5-(5-(trifluoromethyl)-1,2,4-oxadiazol-3-yl)pyridin-2-amine]	4600	26000
FC(F)(F)c1nc(-c2ccc(CN(c3ccccn3)c3ccccn3)cc2)no1 [Example 27, N-(Pyridin-2-yl)-N-(4-(5-(trifluoromethyl)-1,2,4-oxadiazol-3-yl)benzyl)pyridin-2-amine]	3700	4800
O=c1ccc2ccccc2n1Cc1ccc(-c2noc(C(F)(F)F)n2)cc1 [Example 28, 1-(4-(5-(Trifluoromethyl)-1,2,4-oxadiazol-3-yl)benzyl)quinolin-2(1H)-one]	760	1600
